Measured values reported in ChEMBL document CHEMBL1154442, “The total synthesis of fukiic acid, an HIV-1 integrase inhibitor” (Eur J Med Chem, 2008).
pEC50, pIC50: −log10 of the molar value.

Experiments:
[1] = biological target: T1, Human immunodeficiency virus type 1 integrase (Human immunodeficiency virus 1, UniProt Q7ZJM1); test: Inhibition of HIV1 integrase using U5A/U5B double-stranded DNA as substrate by ELISA
[2] = test system: Human immunodeficiency virus 1; test: Antiviral activity against HIV1 3B infected in human MT4 cells assessed as inhibition of virus-induced cytopathic effect by MTT assay; format: functional, organism-based; details: Human immunodeficiency virus 1, 3B
[3] = Cytotoxicity against human MT4 cells by MTT assay; format: cell-based
[4] = biological target: T1, Human immunodeficiency virus type 1 integrase; test: Inhibition of HIV1 integrase using U5A/U5B double-stranded DNA as substrate by ELISA in presence of BSA

T1 sequence (Q7ZJM1 whole entry): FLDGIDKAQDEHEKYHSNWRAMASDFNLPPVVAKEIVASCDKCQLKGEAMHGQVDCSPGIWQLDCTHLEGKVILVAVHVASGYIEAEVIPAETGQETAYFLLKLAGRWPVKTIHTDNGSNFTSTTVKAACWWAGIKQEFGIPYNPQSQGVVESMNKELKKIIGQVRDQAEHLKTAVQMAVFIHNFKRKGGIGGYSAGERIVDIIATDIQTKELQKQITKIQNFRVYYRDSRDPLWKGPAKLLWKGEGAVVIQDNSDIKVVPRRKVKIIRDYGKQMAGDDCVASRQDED

## O=C(O)C(O)C(O)(Cc1ccc(O)c(O)c1)C(=O)O (racemic)
[1]
  pIC50: 6.60
[2]
  pEC50: < 4.66
[3]
  CC50: 22 µM
[4]
  pIC50: 4.77
